What was measured:
[1] = system: L. amazonensis intracellular amastigotes; assay: Antiamastigote assay in infected J774A.1 macrophages; type: cell-based, Leishmania amazonensis; details: 24 h; for reduction of infected macrophages: mean ± SEM
Description: Murine macrophages J774A.1 (5 × 10^5 cell/mL) were cultivated in 24-well plates. After infection, the non-internalized promastigotes were removed by washing with PBS, and the adherent macrophages infected were treated with the most promising chalcone (4f) in non-cytotoxic concentrations (10, 25, 50, and 130 μM) for 24 h (37 °C, 5% CO2). RPMI 1640 medium, DMSO (0.01%), and AmB (1 μM) were used as a negative control, vehicle, and positive control, respectively. Then, cells were stained with Leishman (Laborclin, Pinhais, Brazil), and 20 fields were analyzed by increased immersion (1000× magnification) using an optical microscope (Olympus BX41, Olympus Optical Co., Ltd., Tokyo, Japan) to determine the % of infected macrophages and the number of amastigotes/cells.

[2] = system: L. amazonensis promastigotes; assay: Antipromastigote activity, MTT assay; type: cell-based, Leishmania amazonensis; details: for SI = selectivity index (CC50/IC50): CC50 macrophages / IC50 promastigotes; for IC50: Leishmania amazonensis, L. amazonensis promastigotes, 24 h, MTT, IC50 ± SEM
Description: The promastigote forms of L. amazonensis (MHOM/BR/1989/166MJO) were maintained in culture medium 199 (GIBCO, Invitrogen, New York, NY, USA) pH 7.18–7.22 supplemented with 10% fetal bovine serum (FBS) (GIBCO, Invitrogen, New York, NY, USA), 1M HEPES buffer, 1% human urine, 1% L-glutamine, 10 µg/mL streptomycin and 10 U/mL penicillin (GIBCO, Invitrogen, NY, USA) and 10% sodium bicarbonate. The parasite culture was maintained in a B.O.D. incubator at 24 °C in 25 cm^2 culture flasks. In all experiments, promastigote forms in the stationary growth phase were used (5-day culture).
The activities were evaluated by the 3-(4,5-dimethylthiazol-2-yl)-2,5-diphenyltetrazolium bromide (MTT) assay. L. amazonensis promastigote forms (10^6 cells/mL) were placed in 96-well plates and treated with the chalcone derivatives (4a–i) at different concentrations (10, 25, 50, and 130 µM) and maintained in a B.O.D incubator for 24 h at 24 °C. A solution of MTT (10 μL of a 5 mg/mL stock) (Sigma-Aldrich, St. Louis, MO, USA) was added to each well, and after 4 h, the plates were evaluated at λ = 550 nm using a spectrophotometer (Thermo Fisher Scientific, Multiskan GO, Waltham, MA, USA). L. amazonensis promastigotes maintained in culture M199 medium without treatment or with 0.01% DMSO (Sigma-Aldrich, St. Louis, MO, USA) served as negative and vehicle controls. 1 μM amphotericin B (AmB) (Sigma-Aldrich, St. Louis, MO, USA) was used as a positive control. The results of antipromastigote activities were expressed as half-maximal inhibitory concentrations for 50% of parasites (IC50) in μM. The IC50 values were calculated as the average of three independent experiments performed in duplicates.
(§1) The half-maximal inhibitory concentration for 50% of parasites (IC50) was determined on L. amazonensis promastigotes treated with the nine compounds, and the cytotoxic concentration that causes the death of 50% of cells (CC50) on murine macrophages (J774A.1). IC50 and CC50 were calculated by nonlinear regression using GraphPad Prism statistical software (GraphPad Software, Inc., USA, 500.288). The tested compounds’ selectivity index was expressed as SI = CC50 on […] macrophages/IC50 on promastigotes forms.

[3] = Cytotoxicity on murine macrophages, MTT assay; type: cell-based; details: mouse, J774A.1 macrophage cell line, J774A.1 macrophages, CC50 ± SEM
Description: The cytotoxic effect of compounds 4a–i on murine macrophage cell lines J774A.1 (TIB-67, ATCC, Manassas, VA, USA) was assessed using the MTT assay (3-(4,5-dimethylthiazol-2-yl)-2,5-diphenyltetrazolium bromide) (Sigma-Aldrich, St. Louis, MO, USA), [14]. Macrophages were seeded in 96-well plates at a density of 10^4 cells/well and were cultured with 4a–i at different concentrations (10, 25, 50, and 130 µM) for 24 h (37 °C, 5% CO2). The cells were washed, MTT (5 mg/mL) added, and the cells were incubated for 4 h. The MTT product was diluted with 100 μL of DMSO (Sigma-Aldrich, St. Louis, MO, USA) and analyzed at 550 nm in a spectrophotometer (Thermo Fisher Scientific, Multiskan GO, Waltham, MA, USA) at 550 nm. 0.5% H2O2 (Merck, Darmstadt, Germany) was used as a positive control. The results were expressed as the percentage of viable cells compared to the control group. The cytotoxic concentration for 50% of the cells (CC50) was calculated by nonlinear regression to the dose-response curve using GraphPad Prism statistical software (GraphPad Software, Inc., San Diego, CA, USA, 500.288).
as §1

[4] = system: L. amazonensis promastigotes; assay: SEM and TEM morphological and ultrastructural analysis; type: cell-based, Leishmania amazonensis; details: 3.3 μM and 6.6 μM, 24 h
Description: SEM was performed to analyze morphological changes in the cell surface topography. […] After the treatment, the parasites were fixed in 2.5% glutaraldehyde (Merck, Darmstadt, Germany) in 0.1 M sodium cacodylate buffer (Sigma-Aldrich, St. Louis, MO, USA) and adhered to coverslips covered with poly-L-lysine (Sigma-Aldrich, St. Louis, MO, USA) for 60 min. Parasites were dehydrated with increasing ethanol (Synth, Diadema, Brazil) concentrations (30–100%), submitted to critical point drying (Baltec SCD-030), metalized with gold, and visualized on a high-resolution double beam electron microscope FEI SCIOS.
To evaluate the ultrastructural changes by TEM, promastigotes were treated and fixed as described above. After the samples were post-fixed with 1% OsO4 (Sigma-Aldrich, St. Louis, MO, USA), 0.8% potassium ferrocyanide (Sigma-Aldrich, St. Louis, MO, USA), and 10.0 mM CaCl2 (Synth, Diadema, Brazil) in 0.1 M sodium cacodylate buffer for 1 h at room temperature and protected from light. Samples were washed in 0.1 M sodium cacodylate buffer, dehydrated in increased concentration of acetone (Synth, Diadema, Brazil) (50–100%), including in EPON resin, and polymerized at 60 °C for 72 h. […]

[5] = system: L. amazonensis promastigotes; assay: Mitochondrial membrane potential (TMRE); type: cell-based, Leishmania amazonensis; details: 3.3 μM and 6.6 μM, 24 h
Description: To evaluate if the most promising chalcone (4f) alters the mitochondrial membrane potential, we conducted an assay using a tetramethylrhodamine ethyl ester (TMRE) staining (Sigma-Aldrich, St. Louis, MO, USA). […] Carbonyl cyanide m-chlorophenylhydrazone (100 μM) (CCCP) (Sigma-Aldrich, St. Louis, MO, USA) was used as a positive control, and the vehicle (DMSO 0.01%) was used as a negative control.

[6] = system: L. amazonensis promastigotes; assay: ROS generation in promastigotes (H2DCFDA probe); type: cell-based, Leishmania amazonensis; details: 3.3 μM and 6.6 μM, 24 h
Description: As a positive control, hydrogen peroxide (0.4% H2O2) was used, and the vehicle (DMSO 0.01%) was used for a negative control. ROS was measured as an increase in fluorescence caused by converting the non-fluorescent dye to the fluorescent 2.7-dichlorofluorescein, with an excitation wavelength of 488 nm and emission of 530 nm in a fluorescence microplate reader (Victor X3, PerkinElmer, Turku, Finland).

Row | Structure (SMILES) | IC50 [2] | SI = selectivity index (CC50/IC50) [2] | CC50 at 24 h [3] | also measured
1 | COc1ccc(C(=O)/C=C/c2ccc(Cl)c(Cl)c2)c2c(OC)cccc12 [Compound 4c, (E)-3-(3,4-dichlorophenyl)-1-(4,8-dimethoxynaphthalen-1-yl)prop-2-en-1-one] | 13.4 ± 0.08 µM | 14.5 | 194.3 ± 0.06 µM | –
2 | COc1ccc(C(=O)/C=C/c2c(Cl)cccc2Cl)c2c(OC)cccc12 [Compound 4d, (E)-3-(2,6-dichlorophenyl)-1-(4,8-dimethoxynaphthalen-1-yl)prop-2-en-1-one] | 94.1 ± 0.06 µM | – | 126.8 ± 0.09 µM | –
3 | COc1ccc(C(=O)/C=C/c2ccc(Cl)cc2Cl)c2c(OC)cccc12 [Compound 4e, (E)-3-(2,4-dichlorophenyl)-1-(4,8-dimethoxynaphthalen-1-yl)prop-2-en-1-one] | 37.7 ± 0.06 µM | – | 561.1 ± 0.03 µM | –
4 | COc1ccc(C(=O)/C=C/c2ccc([N+](=O)[O-])cc2)c2c(OC)cccc12 [Compound 4f, (E)-1-(4,8-dimethoxynaphthalen-1-yl)-3-(4-nitrophenyl)prop-2-en-1-one] | 3.3 ± 0.34 µM | 112.6 | 372.9 ± 0.04 µM | ultrastructural changes (TEM) [4]: an increase in autophagic vacuoles, lipid-storage bodies accumulation, mitochondrial swelling, and nuclear alterations; mitochondrial membrane potential (ΔΨm), TMRE [5]: reduces the potential of the mitochondrial membrane (ΔΨm); reduction of number of amastigotes per macrophage ([1]; 10 μM, compared to controls): 14.14 ± 0.04%; reduction of infected macrophages ([1]; 10 μM): 23.81 ± 1.07%; reduction of number of amastigotes per macrophage ([1]; 25 μM, compared to controls): 36.20 ± 0.02%; reduction of infected macrophages ([1]; 25 μM): 35.78 ± 1.59%; reduction of number of amastigotes per macrophage ([1]; 50 μM, compared to controls): 39.33 ± 0.03%; reduction of infected macrophages ([1]; 50 μM): 42.15 ± 0.49%; reduction of infected macrophages ([1]; 130 μM): 63.04 ± 0.35%; IC50 ([1]; Leishmania amazonensis, J774.A1, L. amazonensis-infected J774A.1 macrophages): 18.5 ± 1.19 µM; intracellular ROS levels (DCF fluorescence) [6]: substantial rise in the intracellular ROS levels
5 | COc1ccc(C(=O)/C=C/c2cccc([N+](=O)[O-])c2)c2c(OC)cccc12 [Compound 4g, (E)-1-(4,8-dimethoxynaphthalen-1-yl)-3-(3-nitrophenyl)prop-2-en-1-one] | 14.5 ± 0.09 µM | 23.2 | 366 ± 0.13 µM | –
6 | COc1ccc(C(=O)/C=C/c2ccc(Br)cc2)c2c(OC)cccc12 [Compound 4i, (E)-3-(4-bromophenyl)-1-(4,8-dimethoxynaphthalen-1-yl)prop-2-en-1-one] | 24.3 ± 0.05 µM | 17.8 | 434 ± 0.05 µM | –

Second part, led by results:

Row | IC50 [2] | Structure (SMILES) | SI = selectivity index (CC50/IC50) [2] | CC50 at 24 h [3] | also measured
7 | 0.68 ± 0.21 µM | C[C@@H]1[C@H](O)[C@@H](C)/C=C/C=C/C=C/C=C/C=C/C=C/C=C/[C@H](O[C@@H]2O[C@H](C)[C@@H](O)[C@H](N)[C@@H]2O)C[C@@H]2O[C@](O)(C[C@@H](O)C[C@@H](O)[C@H](O)CC[C@@H](O)C[C@@H](O)CC(=O)O[C@H]1C)C[C@H](O)[C@H]2C(=O)O [AmB, Amphotericin B, reference compound] | 73.17 | 49.7 µM | reduction in the percentage of infected macrophages ([1]; 1 μM, positive control): 95.25 ± 0.65%; reduction of number of amastigotes per macrophage ([1]; 1 μM, positive control): 89.55 ± 0.05%
8 | 264.1 ± 0.12 µM | COc1ccc(/C=C/C(=O)c2ccc(OC)c3cccc(OC)c23)cc1 [Compound 4a, (E)-1-(4,8-dimethoxynaphthalen-1-yl)-3-(4-methoxyphenyl)prop-2-en-1-one] | 1.7 | 414.8 ± 0.04 µM | –
9 | 67.1 ± 0.16 µM | COc1cccc(/C=C/C(=O)c2ccc(OC)c3cccc(OC)c23)c1 [Compound 4b, (E)-1-(4,8-dimethoxynaphthalen-1-yl)-3-(3-methoxyphenyl)prop-2-en-1-one] | 3.7 | 246.7 ± 0.03 µM | –
10 | 26.1 ± 0.09 µM | COc1ccc(C(=O)/C=C/c2ccccc2)c2c(OC)cccc12 [Compound 4h, (E)-1-(4,8-dimethoxynaphthalen-1-yl)-3-phenylprop-2-en-1-one] | 33.44 | 872.3 ± 0.134 µM | –

— paper PMC9598561, “Antileishmanial Activity of 4,8-Dimethoxynaphthalenyl Chalcones on Leishmania amazonensis” (Antibiotics, 2022)
